The assay relates to AMPK. The experiment in a line: AMPK activating activity in HK-2 cells treated with tunicamycin, Western blot. The class given is cell-based, human. As to conditions: tunicamycin 5 μg/ml with or without sephin1 1 μM, 24 hours, compared to untreated cells. The procedure:
The HK-2 cell line is a proximal tubular cell line derived from normal kidney immortalized by transduction with human papilloma virus 16 (HPV-16) E6/E7 genes.
HK-2 cells were seeded in a six well plate at a cell density of 7×10^4 cells per well 24 hours prior to the start of the study (T−24). […] 24 hours later (at T24) cells were recovered and protein was analyzed by Western blot analysis.

Take tunicamycin: the “AMPK levels (AMPK/GAPDH)” value is recorded as “reduced”.

(Values after patent publication US20260240795A1 (KYOTO P[…] UNIVERSITY CORPORATION, priority 2023, published 2026).)
